Consider 19 molecules from PubChem BioAssay AID328 (DTP/NCI, 2004).

The experiment concerns BDF1 mice, P388 leukemia ip, median survival T/C. Briefly: NCI In Vivo Anticancer Drug Screen. Data for tumor model P388 Leukemia (intraperitoneal) in B6D2F1 (BDF1) mice. Conditions: endpoint: median survival time, higher = longer survival. An outline of the steps: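 Vehicle-dosed animals serve as the reference; survival of compound-dosed, tumour-implanted mice is divided by it.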

The mark [1] stands for this setting: dose: 50.0 mg/kg/injection, schedule: Q01DX009 (ip), vehicle: saline.
Setting [2] is: dose: 100.0 mg/kg/injection, schedule: Q01DX009 (ip), vehicle: saline with Tween-80.
Where [3] appears, read: dose: 200.0 mg/kg/injection, schedule: Q01DX009 (ip), vehicle: saline with Tween-80.
Where [4] appears, read: dose: 50.0 mg/kg/injection, schedule: Q01DX009 (ip), vehicle: saline with Tween-80.
[5] abbreviates: dose: 100.0 mg/kg/injection, schedule: Q04DX003 (ip), vehicle: saline with Tween-80.
[6] abbreviates: dose: 200.0 mg/kg/injection, schedule: Q04DX003 (ip), vehicle: saline with Tween-80.
The mark [7] stands for this setting: dose: 400.0 mg/kg/injection, schedule: Q04DX003 (ip), vehicle: saline with Tween-80.
[8] abbreviates: dose: 12.5 mg/kg/injection, schedule: Q01DX009 (ip), vehicle: saline.
[9] abbreviates: dose: 25.0 mg/kg/injection, schedule: Q01DX009 (ip), vehicle: saline.

The structures appear in SMILES notation. Several values for one entry are separate records, joined by “and”; a condition that tells them apart may be missing. Equal entries are not always repeated. Toxic doses and inconclusive results are not listed.

As for `CNCCN(C)CCN(C)Cc1ccc(OC)cc1`, the T/C runs as follows: (dose: 25.0 mg/kg/injection, schedule: Q01DX009 (ip), vehicle: water) 101 % of control; under setting [1], 111 % of control; (dose: 50.0 mg/kg/injection, schedule: Q01DX009 (ip), vehicle: water) 110 % of control; (dose: 100.0 mg/kg/injection, schedule: Q01DX009 (ip), vehicle: saline) 101 % of control; (dose: 100.0 mg/kg/injection, schedule: Q01DX009 (ip), vehicle: water) 93 % of control; (dose: 200.0 mg/kg/injection, schedule: Q01DX009 (ip), vehicle: saline) 104 % of control.

As for `COc1ccc2nccc(C=O)c2c1`, the T/C was 116 % of control under setting [2]; 114 % of control under setting [3]; 117 % of control (dose: 400.0 mg/kg/injection, schedule: Q01DX009 (ip), vehicle: saline with Tween-80).

For the molecule `O=C1c2cc(O)c(O)cc2O[C@H](c2ccc(O)c(O)c2)[C@H]1O`, the T/C (dose: 7.5 mg/kg/injection, schedule: Q01DX010 (ip), vehicle: saline) was 100 % of control; the T/C (dose: 15.0 mg/kg/injection, schedule: Q01DX009 (ip), vehicle: saline) is 113 % of control and 118 % of control; the T/C (dose: 15.0 mg/kg/injection, schedule: Q01DX010 (ip), vehicle: saline) was 109 % of control; the T/C (dose: 30.0 mg/kg/injection, schedule: Q01DX009 (ip), vehicle: saline) is 100 % of control; the T/C (dose: 30.0 mg/kg/injection, schedule: Q01DX010 (ip), vehicle: saline) is 109 % of control; the T/C (dose: 60.0 mg/kg/injection, schedule: Q01DX009 (ip), vehicle: saline) is 104 % of control and 122 % of control. Besides, the T/C is 104 % of control (dose: 125.0 mg/kg/injection, schedule: Q01DX009 (ip), vehicle: saline) and 117 % of control (dose: 350.0 mg/kg/injection, schedule: Q01DX009 (ip), vehicle: saline).

`Cc1ccc(C(=O)C2CC2)c(C)c1`: the T/C is, setting by setting: under setting [4], 92 % of control; under setting [2], 103 % of control; under setting [5], 112 % of control; under setting [3], 100 % of control; under setting [6], 120 % of control; under setting [7], 108 % of control.

On to `CC1C[N+](C)=C2CCCCC2=C1N` (stereo not drawn), for which the T/C is 95 % of control (dose: 6.25 mg/kg/injection, schedule: Q01DX009 (ip), vehicle: saline); 100 % of control under setting [8]; 86 % of control under setting [9].

As to `CCCn1/c(=N\N=O)sc2ccccc21`, the T/C reads like this: (dose: 50.0 mg/kg/injection, schedule: Q04DX003 (ip), vehicle: saline sonified) 100 % of control; (dose: 100.0 mg/kg/injection, schedule: Q04DX003 (ip), vehicle: saline sonified) 100 % of control; (dose: 200.0 mg/kg/injection, schedule: Q04DX003 (ip), vehicle: saline sonified) 95 % of control.

For the molecule `CCN(CC)CCOC(=O)c1ccc([N+](=O)[O-])c2ccccc12`, the T/C is 98 % of control (dose: 50.0 mg/kg/injection, schedule: Q01DX005 (ip), vehicle: saline with Tween-80); 88 % of control (dose: 100.0 mg/kg/injection, schedule: Q01DX005 (ip), vehicle: saline with Tween-80); 88 % of control (dose: 200.0 mg/kg/injection, schedule: Q01DX005 (ip), vehicle: saline with Tween-80).

For the molecule `CNC(=O)NC1C(O)COC(OC)C1O` (stereo not drawn), the T/C reads like this: (dose: 150.0 mg/kg/injection, schedule: Q01DX001 (ip), vehicle: saline) 104 % of control; (dose: 300.0 mg/kg/injection, schedule: Q01DX001 (ip), vehicle: saline) 109 % of control.

As to `CCSc1ncnc2[nH]ncc12`, the T/C by setting is: (dose: 6.25 mg/kg/injection, schedule: Q01DX009 (ip), vehicle: saline + alcohol) 101 % of control; (dose: 12.5 mg/kg/injection, schedule: Q01DX009 (ip), vehicle: saline + alcohol) 100 % of control; (dose: 25.0 mg/kg/injection, schedule: Q01DX009 (ip), vehicle: saline + alcohol) 100 % of control; (dose: 50.0 mg/kg/injection, schedule: Q01DX009 (ip), vehicle: saline + alcohol) 98 % of control.

`O=c1/c(=C\C=C\c2ccccc2)sc2n1CCN=2`: the T/C reads like this: under setting [4], 92 % of control; under setting [2], 92 % of control; under setting [3], 92 % of control.

Regarding `[NH-]C(CCC(N)=O)C(=O)O.[NH-]C(CCCN=C(N)N)C(=O)O.[Zn+2]` (stereo not drawn), the T/C is 104 % of control (dose: 50.0 mg/kg/injection, schedule: Q01DX005 (ip), vehicle: saline) and 120 % of control (dose: 100.0 mg/kg/injection, schedule: Q01DX005 (ip), vehicle: saline).

For `O=C1NC(=O)C2(CCCc3ccc(N(CCCl)CCCl)cc32)N1` (stereo not drawn), the T/C runs as follows: (dose: 6.25 mg/kg/injection, schedule: Q04DX003 (ip), vehicle: saline with Tween-80) 150 % of control; (dose: 12.5 mg/kg/injection, schedule: Q04DX003 (ip), vehicle: saline with Tween-80) 170 % of control; under setting [5], 227 % of control; (dose: 132.0 mg/kg/injection, schedule: Q04DX003 (ip), vehicle: saline with Tween-80) 195 % of control; under setting [6], 229 % of control and 240 % of control; (dose: 300.0 mg/kg/injection, schedule: Q04DX003 (ip), vehicle: saline with Tween-80) 191 % of control.

As to `C=CC1C2CCC(C2)C1Cl` (stereo not drawn), the T/C is 100 % of control (dose: 50.0 mg/kg/injection, schedule: Q01DX009 (ip), vehicle: other); 104 % of control (dose: 100.0 mg/kg/injection, schedule: Q01DX009 (ip), vehicle: other); 107 % of control (dose: 200.0 mg/kg/injection, schedule: Q01DX009 (ip), vehicle: other).

As to `COc1cc(C)c(Cl)c(C)c1C#CC(=O)O`, the T/C was 115 % of control (dose: 100.0 mg/kg/injection, schedule: Q01DX001 (ip), vehicle: Klucel (hydroxypropylcellulose) (HPC)) and 111 % of control (dose: 200.0 mg/kg/injection, schedule: Q01DX001 (ip), vehicle: Klucel (hydroxypropylcellulose) (HPC)).

Regarding `COc1ccc(OC)c(C(=O)C[n+]2ccccc2)c1`, the T/C by setting is: (dose: 25.0 mg/kg/injection, schedule: Q01DX009 (ip), vehicle: saline with Tween-80) 91 % of control; under setting [4], 91 % of control.

As to `C1CCN(NC2=NCCO2)CC1`, the T/C under setting [8] was 95 % of control, the T/C under setting [9] was 108 % of control and the T/C under setting [1] was 100 % of control.

Consider `CCCC/C(C=O)=C\NC(=O)Nc1ccccc1`, for which the T/C (dose: 50.0 mg/kg/injection, schedule: Q04DX002 (ip), vehicle: saline with Tween-80) was 100 % of control; the T/C (dose: 100.0 mg/kg/injection, schedule: Q04DX002 (ip), vehicle: saline with Tween-80) is 90 % of control; the T/C (dose: 200.0 mg/kg/injection, schedule: Q04DX002 (ip), vehicle: saline with Tween-80) is 98 % of control.

Take `CCOP(=O)(C/C(=N\Nc1ccc([N+](=O)[O-])cc1[N+](=O)[O-])c1ccccc1)c1ccccc1` (stereo not drawn): the T/C was 100 % of control (dose: 25.0 mg/kg/injection, schedule: Q01DX001 (ip), vehicle: saline with Tween-80); 104 % of control (dose: 50.0 mg/kg/injection, schedule: Q01DX001 (ip), vehicle: saline with Tween-80); 95 % of control (dose: 100.0 mg/kg/injection, schedule: Q01DX001 (ip), vehicle: saline with Tween-80).

In the case of `CC(=O)NCC(S)c1ccc(Cl)cc1` (stereo not drawn), the T/C under setting [5] was 118 % of control, the T/C under setting [6] was 95 % of control and the T/C under setting [7] was 90 % of control.
